Read-outs that look alike come from different tables or passages of the source. One block for each compound: values may come before it.
Columns and labels:
[1] = tested on: gastric emptying of a solid meal; assay: Gastric emptying of solid meal in conscious dogs; assay type: in vivo, beagle dogs; conditions: for gastric half emptying time (T1/2) of a solid meal: control 208 ± 34, *P < .05; for half emptying time (t1/2) of a solid meal, in words: orally, conscious dogs
Protocol: Under aseptic conditions 10 beagle dogs were implanted with T-shaped titanium duodenal cannulas. The dogs were allowed to recover from surgery for 3 weeks. Each dog before the test was fasted for 16-18 hours. Water was provided ad lib. On the day of the test, the duodenal cannula was opened and the stomach contents were drained. The cannula was closed again and the dog was dosed orally with either placebo (10cc saline) or with test compound in 10cc saline. […] The dry weight of this food is 36 grams. After the dog had ingested the food the cannula was opened and an insert was placed in the cannula which drained the chyme through the cannula into a beaker. This collection was continued for 5 hours and samples were collected every thirty minutes. The chyme was filtered and dried in an oven. The dry weight collected every thirty minutes was deducted from the dry weight of the food left in the stomach. A time response curve of gastric emptying was developed and t1/2, the time taken to empty 50% of the solid meal from the stomach was determined. The t1/2 for the test compound at various doses was compared with controls. Significance of differences was determined using paired t-test.

benzodiazepine receptors = assay: Radioligand binding to membrane receptors: benzodiazepine
Protocol: (§1) Radioligand binding studies to membrane receptors were carried out to assess the potential for interaction with other receptors. […] To assess any possible cardiovascular effects a bolus injection of the test compound at various doses was administered to anesthetized dogs. Thus, the compound of Example 1, at 5 mg/kg administered I.V., had no effect on heart rate or blood pressure in three anesthetized dogs.

dopamine receptors = assay: Radioligand binding to membrane receptors: dopamine
Protocol: as §1

GABA receptors = assay: Radioligand binding to membrane receptors: GABA
Protocol: as §1

rat gastric emptying = assay: In vivo small animal gastroprokinetic activity: rat gastric emptying; parameters: species or system male Sprague-Dawley rats; conditions: normal rats; for ED50: Rattus norvegicus
Protocol: IN VIVO SMALL ANIMAL GASTROPROKINETIC ACTIVITY The method used to assess rat gastric emptying is a modification of the procedures described by D. A. Droppleman et al., Journal of Pharmacological Methods, 4, 227-230 (1980). Test compounds (0.3 to 30 mg/kg in 1 ml/kg vehicle) are administered either orally or subcutaneously to male, Sprague-Dawley rats (160-180 g) that were fasted overnight. The test animals receive 2.5 ml of a freshly made milk plus ground rat chow meal by oral intubation, thirty or fifteen minutes following oral or subcutaneous administration, respectively. Rats are sacrificed 25 minutes following the test meal, and the stomachs are quickly excised. Each stomach containing the remaining meal is weighed intact on an analytical balance. To empty the contents before reweighing, each stomach is cut open, rinsed thoroughly and then blotted dry. The difference in weights indicates the amount of meal remaining in the stomach. The amount of meal retained is calculated as a percent of the total meal weight administered.

serotonin receptors = assay: Radioligand binding to membrane receptors: serotonin
Protocol: as §1

[2] = tested on: opossum lower esophageal sphincter (LES); assay: Lower esophageal sphincter pressure in the anesthetized opossum; assay type: in vivo
Excerpt: This procedure measures the effect of the test compounds on the opossum lower esophageal sphincter (LES) which closely resembles the human sphincter. In order to test the effects of compounds on LES resting pressure, a small tube perfused with water at a constant flow rate is passed through the anesthetized opossum esophagus and water pressure in the tube is monitored. The method is similar to that described by R. Goyal et al., Gastroenterology, 71, 62-67 (1976). An increase in esophageal tone is measured as an increase in pressure and reported as a percent increase of the control determination. The compound of Example 1 was given as a single bolus dose of 10 mg/kg I.V. in four opossums.

[3] = tested on: circular smooth muscle contractile activity of the antral and duodenal portion of the stomach; assay: Gastric contractile activity in the anesthetized dog; assay type: in vivo, Male Beagle Dogs; conditions: I.V. cumulative dosing 0.01 to 10 mg/kg
Protocol: The effect of test compounds on circular smooth muscle contractile activity of the antral and duodenal portion of the stomach are measured by strain gauge arches sewn on the serosal surface similar to the procedure described by […] et al., Digestion, 28, 205-209 (1983). Male Beagle Dogs, weighing 8 to 14 kg, are fasted overnight and then anesthetized with pentothal (thiopental sodium), 20 mg/kg and maintained with I.V. alpha-chloralose (100 mg/ml in PEG 400, diluted 1:1 with saline immediately before use) as needed, usually 100 mg/dose. The trachea is intubated for respiratory assistance if needed, and the right femoral artery and vein are cannulated to monitor blood pressure and administer I.V. solutions, respectively. The stomach and intestine are exposed by a midline incision, and a Walton-Brodie adjustable strain gauge arch is sewn on the ventral surface of the antrum of the stomach, 3-5 cm proximal to the pylorus. The arch is oriented to respond to contractions of the circular muscle, and the initial resting tension is set at 25 grams by adjusting the length of the arch. The preparation is allowed to stabilize for 1 to 2 hours. Fifteen minutes after observation of migrating motor complex phase III activity, test compounds are given every 10 minutes in a cumulative dosing manner beginning at 0.01 mg/kg to 10 mg/kg. The test compounds are dissolved in saline at concentrations that are dependent on the weight of each animal so that a constant volume will be administered at each dose level. […] The stomach contractions, the cumulative grams of tension developed by the stomach contractions, EKG, heart rate, blood pressure, and any additional contractile and/or electrical activities are recorded on a Beckman Dynograph. The results are expressed as the increased tension developed by the smooth muscles in response to the administration of test compound.

rat fundic strip = assay: Electrically stimulated isolated rat stomach fundus; assay type: cell-based
Protocol: (§2) Two classical pharmacological preparations, the field stimulated guinea pig ileum and field stimulated rat fundic strip, are utilized to assess gastroprokinetic activity in vitro.
The rat fundic strip is prepared according to the method described by J. R. Vane, Brit. J. Pharmacol., 12, 344-349 (1957). For this preparation, strips are made by removing the fundal end of the stomach and slitting it open to form a sheet. Small cuts are made transversing the longitudinal muscle to produce two strips 3-4 cm in length. The tissues are mounted in a 20 ml organ bath containing Kreb's solution at 37° C. and are oxygenated with 95% O2 -5% CO2. Resting tension is adjusted to 1.0 g. Contractions are recorded by means of a force displacement transducer and a Beckman Dynograph Type R.
Once a consistent response to electrical field stimulation is established, varying amounts of a test compound are added to the bath. All compounds are administered three minutes prior to electrical stimulation at volumes of 0.2 ml to 0.6 ml for final bath concentrations of 0.1 μM thru 100 μM. Each tissue is thoroughly washed between each dose. A dose response curve is achieved by measuring the effect of increasing dose levels of test materials on the tissue contraction due to electrical field stimulation.

[4] = tested on: calcium channel receptors; assay: Radioligand binding to membrane receptors: calcium channel
Protocol: as §1

[5] = tested on: guinea pig ileum (longitudinal muscle); assay: Electrically stimulated isolated guinea pig ileum; assay type: cell-based; conditions: Cavia porcellus
Protocol: as §2
A modification of the procedure described by W. D. M. Paton, J. Physiol. (Lond), 127, 40-41P (1955). Segments of the preterminal ileal tissue, 3-4 cm in length, are mounted in a 20 ml tissue bath. The tissues are perfused at 37° C. with a modified Krebs solution and continuously gassed with 95%O2 -5% CO2. The solution is prepared with millipore water and consists of (mM/L): NaCl 116, KCl 5, CaCl2 2.5, KH2 PO4 1.2, MgSO4.7H2 O 0.5, NaHCO3 25 and Glucose 11.1.
A force displacement transducer is attached to each tissue and the resting tension adjusted to 1.0 g. The tissues are allowed to equilibrate for one hour, with washes every twenty minutes, after the stimulator is engaged or until twitch height remains stable.
Dose response curves for test compounds are established by adding single doses of the material in increasing increments until a maximal effect is achieved. Compounds are administered at volumes ranging from 0.2 to 0.6 ml to give final bath concentrations of 0.1 μM thru 100 μM. The test materials remain in contact with the tissue for 2 to 3 minutes, until the peak effect is achieved, before thorough washing with Kreb's solution. […]

[6] = tested on: heart rate or blood pressure; assay: Cardiovascular effects in anesthetized dogs; assay type: in vivo; conditions: 5 mg/kg I.V. bolus; three anesthetized dogs
Protocol: as §1

[7] = 1.0 mg/kg P.O. (N = 3), 60 minutes before meal
[8] = 3.0 mg/kg P.O. (N = 3), 60 minutes before meal

- binding to benzodiazepine receptors (benzodiazepine receptors): does not bind
- binding to dopamine receptors (dopamine receptors): does not bind
- binding to GABA receptors (GABA receptors): does not bind
- binding to serotonin receptors (serotonin receptors): does not bind
- EC50 (rat fundic strip; bath concentrations 0.1 μM thru 100 μM, 37° C., 95% confidence limits in parentheses): 8.2 µM
- binding to calcium channel receptors [4]: does not bind
- EC50 ([5]; 95% confidence limits of 84-1629, bath concentrations 0.1 μM thru 100 μM, 37° C., read-out: computer projected EC50 value): 224 µM
SMILES: Nc1n[s+]([O-])nc1NCCSCc1ccc(CN2CCCCC2)o1 (stereo not shown) [Example 1, 3-Amino-4-{2-[(5-piperidinomethyl-2-furyl)methylthio]ethylamino}-1,2,5-thiadiazole 1-oxide]
- gastric half emptying time (T1/2) of a solid meal ([1]; 0.1 mg/kg P.O. (N = 3), 60 minutes before meal): 204 ± 32 min
- gastric half emptying time (T1/2) of a solid meal [1, 7]: 96 ± 14 min
- gastric half emptying time (T1/2) of a solid meal [1, 8]: 98 ± 16 min
- half emptying time (t1/2) of a solid meal, in words ([1]; 1.0 mg/kg): significantly decreased
- ED50 (rat gastric emptying; sc, subcutaneous, 15 min before test meal, read-out: subcutaneous ED50 value, stomach emptying): 0.4 mg/kg
- ED50 (rat gastric emptying; oral, 30 min before test meal, read-out: oral ED50 value, stomach emptying): 2.9 mg/kg
- maximum response over control values, stomach emptying (rat gastric emptying; oral): 95±19%
- maximum response over control values, stomach emptying (rat gastric emptying; subcutaneous): 105±6%
- increase in LES pressure ([2]; 10 mg/kg I.V. single bolus, four opossums, percent increase of the control determination): 33%
- inhibition of LES pressure following the initial increase ([2]; I.V., higher doses than 10 mg/kg): no inhibition of LES pressure following the initial increase was observed
- ED50 ([3]; Canis lupus familiaris, iv, 50% of approx. 20 grams mean maximal response, read-out: ED50 value (dose necessary to achieve 10 grams of tension)): 0.24 mg/kg
- duodenal tension [3]: increased the duodenal tension dose dependently
- maximal response of developed tension [3]: 24±5 grams
- Emax (rat fundic strip; read-out: increase in contractile force, maximal response over control): 82 ± 10%
- Emax ([5]; read-out: increase in contractile amplitude, maximal response over control): 37 ± 4.8%
- effect on blood pressure [6]: no effect
- effect on heart rate [6]: no effect

SMILES: NC1=NS(=O)(=O)N=C1NCCSCc1ccc(CN2CCCCC2)o1 [Example 2]
- gastric half emptying time (T1/2) of a solid meal [1, 7]: 110 ± 18 min
- half emptying time (t1/2) of a solid meal, in words ([1]; 1.0 mg/kg): significantly decreased

SMILES: CCN(CC)CCNC(=O)c1cc(Cl)c(N)cc1OC [Metoclopramide, metoclopramide, reference compound]
- gastric half emptying time (T1/2) of a solid meal ([1]; 0.1 mg/kg P.O. (N = 3), 30 min before meal): 120 ± 21 min
- gastric half emptying time (T1/2) of a solid meal ([1]; 1.0 mg/kg P.O. (N = 3), 30 min before meal): 198 ± 14 min

SMILES: CNC(=C[N+](=O)[O-])NCCSCc1ccc(CN(C)C)o1 [Ranitidine, ranitidine, reference compound]
- gastric half emptying time (T1/2) of a solid meal [1, 7]: 206 ± 31 min
- gastric half emptying time (T1/2) of a solid meal [1, 8]: 206 ± 24 min
- half emptying time (t1/2) of a solid meal, in words ([1]; at the tested doses (1.0 and 3.0 mg/kg)): ineffective

Reference: US4829073A, “Thiadiazole oxides for treating gastrointestinal motility disorders” (Bristol-Myers Company, priority 1988, dated 1989)
